Read-outs that look alike come from different tables or passages of the source.

Here are results for two molecules from paper PMC7163137, “The Pyrimidine Analog FNC Potently Inhibits the Replication of Multiple Enteroviruses” (Journal of Virology, 2020).

The test system of one series is influenza A(H1N1) virus. Description: Anti-influenza A(H1N1) activity in MDCK cells (Western blot, RT-qPCR). The class given is cell-based. On the technique in general: A western blot detects proteins with antibodies after separation by electrophoresis.
Series [1] has as its system EV71, CA16, CA6, CVB3, and EVD68. The experiment in a line: Antiviral activity against a variety of enteroviruses in RD cells.
For another series, the system named is HEK293T cells. Description: Cytotoxicity, CCK-8 cell viability assay in HEK293T cells. The series is classed as cell-based. Particulars: 48 h. As for the experimental part:
(§1) The cells were treated with various concentrations of compounds dissolved in DMSO for 48 h, and then cell viability was assayed using a Cell Counting kit‑8 (CCK-8; Beyotime, Shanghai, China). In brief, 10 μl of the CCK‑8 solution was added, and the cells were incubated for an additional 2 h. Medium without cells was used as a blank control. Absorbance at a wavelength of 450 nm was measured using a microplate reader. Cell viability was determined as a percentage of that of the control. All cell proliferation assays were performed in triplicate and repeated in three independent experiments.
In general terms: Tetrazolium dyes change colour on reduction, which living cells bring about.

In the next series the test system is CA6. The experiment in a line: Anti-CA6 activity in infected RD cells (RT-qPCR). Particulars: read-out: EC50 for CA6.
Series [2] concerns EV71. The experiment in a line: Anti-EV71 activity in infected RD cells (Western blot, RT-qPCR, virus titer).
The subject of another series is RSV. The experiment in a line: Anti-RSV activity in HEK293T cells (Western blot, RT-qPCR). The series is classed as cell-based, respiratory syncytial virus. Particulars: MOI 0.5, 48 h, safe drug concentrations.
For the next series, the system named is RD cells. Description: Cytotoxicity, CCK-8 cell viability assay in RD cells. The class given is cell-based, human. Particulars: 48 h. As for the experimental part:
as §1

Experiment in series [3]: as above
The class given is cell-based, human. Particulars: human. As for the experimental part:
as §1

A further series concerns deoxycytidine kinase. Further details: method as in PMID 18003608. Particulars: substrate for deoxycytidine kinase ref 32; cited from earlier work.
The next series has as its system EVD68. The experiment in a line: Anti-EVD68 activity in infected RD cells (RT-qPCR). Particulars: Enterovirus D, read-out: EC50 for EVD68. (Quantitative PCR measures a nucleic acid by following its amplification.)
Series [4] concerns the target T1, EV71 3D^pol (Human enterovirus 71, UniProt Q66478).
T1 construct: EV71 3D^pol was cloned into the pET28a expression vector with a His tag at the N terminus; His tag (N); made in house; host or cells: E. coli BL21-derived cells
Description: Fluorescence-based activity assay for EV71 3Dpol. Particulars: poly(A)/UTP, SYTO 9, 30°C. The series is classed as biochemical. As for the experimental part:
(§2) EV71 3D^pol was cloned into the pET28a expression vector with a His tag at the N terminus and expressed in E. coli BL21-derived cells. The 3D^pol protein was purified by Ni-column affinity chromatography, and a gel filtration column was connected to an ÄKTA system (General Electric Company, CT, USA). The purity of the resulting 3D^pol protein was determined through SDS-PAGE analysis.
We followed the novel fluorescence-based method for the detection of polymerase activity of EV71 3D^pol ([52]). Reactions were performed in individual wells of black 96-well flat-bottom plates. The standard reaction contained 50 mM Tris-HCl (pH 7.5), 2.5 mM MnCl2, 100 μM UTP, 40 μg/ml poly(A), 0.1 mg/ml bovine serum albumin (BSA), and 0.25 μM SYTO 9. Different concentrations of FNC were added to the reaction mixtures. The assay was initiated by the addition of EV71 3D^pol, and the fluorescence was recorded at 30°C.

Another series relates to MDCK cells. Description: Cytotoxicity, CCK-8 cell viability assay in MDCK cells. Particulars: 48 h. The series is classed as cell-based. As for the experimental part: as §1
For series [5], the target named is T1, EV71 3D^pol. Description: Isothermal titration calorimetry with EV71 3Dpol. The class given is binding. As for the experimental part: as §2
ITC experiments were performed by using an ITC200 instrument (MicroCal, Inc., Northampton, MA, USA). The concentration of 3D^pol was 100 μM. FNC was diluted with buffer (pH 7.5, 25 mM HEPES, 100 mM NaCl) to yield a solution of 1.0 mM. The sample cell was filled with 3D^pol protein solution, and FNC was added by syringe at 25°C. The stirring rate was 750 r/min. All data were analyzed using the Origin 7.0 software.

The next series deals with EV71 CC063. The experiment in a line: Lethal EV71 challenge, neonatal mouse model. The class given is in vivo, ICR neonatal mice. As for the experimental part: (§3) One-day-old specific pathogen-free (SPF) ICR neonatal mice (Beijing Institute of Radiation Medicine) were used to establish the animal model of viral infection. All welfare and experimental procedures were carried out strictly in accordance with the Guide for the Care and Use of Laboratory Animals and the related ethical regulations of the Beijing Institute of Radiation Medicine. All efforts were made to minimize animal suffering. The neonatal mice were randomly divided into five groups, and each group contained three litters (n = 8 to ∼10 per litter). One group was inoculated intracerebrally with DMEM (10 μl/mouse) and after 1 h injected intraperitoneally with DMSO (control group). Two groups were inoculated intracerebrally with EV71 CC063 (10^5.5 CCID50 ml^−1) and after 1 h injected intraperitoneally with FNC or DMSO. Two groups were inoculated intracerebrally with CA16 CC045 (10^2.7 CCID50 ml^−1) and after 1 h injected intraperitoneally with FNC or DMSO. The survival rates and mean clinical symptoms were monitored daily for 15 days postinfection. The mean clinical symptoms were scored as follows: 0, healthy; 1, lethargy or weakness; 2, wasting; 3, limb tremors; 4, paralysis in hind limb; and 5, moribund or dead. The control mice were healthy throughout the experiments.
(§4) After intracerebral inoculation with EV71 CC063 viruses, CA16 CC045 viruses, or culture medium, three experimental neonatal mice and three control neonatal mice were subjected to viral load detection. The EV71 infection and control groups were collected on day 9 postinfection, and the CA16 infection and control groups were collected on day 14 postinfection. All tissues, including brain, lung, spine skeletal muscle, and hind-limb muscle, were weighed individually, homogenized in sterile PBS, disrupted by freeze-thawing, and centrifuged. The samples were treated with TRIzol (Invitrogen) for RNA extraction and viral load determination by real-time PCR, as described previously ([42]). Viral loads were determined by real-time PCR and expressed as log10 copies/mg tissue.
A total of 15 mice were sampled, as follows: three normal mice from the mock-infected group (the clinical score of grade 0), three mice from the EV71-infected and DMSO-treated group (the clinical score of grade 4), three mice from the CA16-infected and DMSO-treated group (the clinical score of grade 3), three mice from the EV71-infected and FNC-treated group (the clinical score of grade 3), and three mice from the CA16-infected and FNC-treated group (the clinical score of grade 1). After the mice were anesthetized, lung, brain, spine skeletal muscle, and hind-limb muscle tissues were harvested and immersion fixed with 10% formaldehyde solution for 5 days. […]

The subject of a further series is CVB3. Description: Anti-CVB3 activity in infected RD cells (RT-qPCR). Particulars: Enterovirus B, read-out: EC50 for CVB3.
The next series has as its system CA16 CC045. Description: Lethal CA16 challenge, neonatal mouse model. The series is classed as in vivo, ICR neonatal mice. As for the experimental part: as §3
as §4, with “tissue. […]” for “tissue.”

In a further series the test system is CA16. Description: Anti-CA16 activity in infected RD cells (RT-qPCR). Particulars: Enterovirus A, read-out: EC50 for CA16.
The subject of series [6] is EV71. Further details: method as in PMID 18279075. Particulars: RD cells, virus-induced CPE assay ref 27; read-out: 50% effective concentration (EC50) against EV71; cited from earlier work.
The mark [7] stands for this setting: vs DMSO treatment group, P < 0.05.

T1 sequence (Q66478 1732-2193): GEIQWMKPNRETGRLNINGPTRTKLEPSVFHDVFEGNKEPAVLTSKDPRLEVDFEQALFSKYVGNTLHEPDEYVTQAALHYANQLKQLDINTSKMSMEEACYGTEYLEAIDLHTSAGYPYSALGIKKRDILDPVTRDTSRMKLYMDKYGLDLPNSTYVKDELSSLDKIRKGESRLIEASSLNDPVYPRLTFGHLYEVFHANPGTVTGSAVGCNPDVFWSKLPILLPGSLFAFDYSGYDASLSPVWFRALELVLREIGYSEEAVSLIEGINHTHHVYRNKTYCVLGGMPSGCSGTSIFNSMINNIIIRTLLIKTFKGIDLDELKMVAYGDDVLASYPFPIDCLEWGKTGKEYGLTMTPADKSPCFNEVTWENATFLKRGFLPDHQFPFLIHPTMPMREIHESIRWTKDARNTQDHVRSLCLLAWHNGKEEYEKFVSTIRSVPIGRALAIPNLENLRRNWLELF

Turning to `[N-]=[N+]=N[C@]1(CO)O[C@@H](n2ccc(N)nc2=O)[C@@H](F)[C@@H]1O` [FNC, 2'-deoxy-2'-β-fluoro-4'-azidocytidine], the “effect on H1N1 replication (viral proteins, RNA)” value in the series on influenza A(H1N1) virus is listed as “no inhibitory effect”. In series [1] (CA16, CA6, CVB3, EVD68, RD cells), the “virions in the supernatant and viral titers” value is “suppressed by FNC in a dose-dependent manner”. For the same molecule, the “positive- and negative-strand EV RNA synthesis (RT-qPCR)” value in [1] (EV71, CA16, CA6, CVB3, EVD68, RD cells, 48 h) was “inhibited both positive- and negative-strand EV RNA synthesis”. Also, the “selectivity indices (CC50/EC50) against EVs” value in [1] (RD cells) is recorded as “good selectivity indices”. The EC50 in series [1] (RD, read-out: EC50 against a variety of enteroviruses) was 1.55 to 52.1 nM; with CA6, 13.4 nM; in the series on EV71 [2] (Enterovirus A, EV71, RD, 48 h, read-out: EC50 against EV71, RD cells, from reduced viral RNA level (RT-qPCR), 48 h) it was 16.9 nM; with EVD68 it was 1.55 nM; in the series on CVB3, 33.8 nM; with CA16, 52.1 nM. In addition, in series [1] (in vitro cell model), the “suppression of EVs (VP1 protein expression, viral RNA levels, viral titers)” value is listed as “efficiently suppressed”. In addition, the safe dose in the series on HEK293T cells amounted to 100 µM; in the series with MDCK cells, 10 µM. Further, the “virus titers in supernatants (plaque assay, CPE-based TCID50)” value in the series with EV71 [2] (EV71-infected RD cells, increasing doses) is listed as “continuously decreasing virus titers”. Besides, in the series with EV71 [2] (RD cells, 100 nM, 48 h postinfection), the “EV71 VP1 protein by Western blot” value was “could not be detected”. For the same molecule, the “anti-EV71 activity, intracellular VP1 protein by Western blot” value in the series on EV71 [2] (RD cells, MOI 0.1, 48 h treatment, 1 μM) is listed as “obvious anti-EV71 activity”. In addition, the “effect on RSV replication (viral proteins, RNA)” value in the series with RSV is “no inhibitory effect”. Further, the “concentration that did not significantly affect cell viability (safe dose)” value with RD cells was 1000 nM. In addition, half-maximal cytotoxicity in series [3] (CC50 at 48 h) was put at 3240 nM. Besides, in the series on deoxycytidine kinase, the “phosphorylation efficiency relative to deoxycytidine” value is given as “up to 3 fold”. In addition, the “RNA synthesis activity of EV71 3Dpol” value at EV71 3D^pol [4] is “inhibited the RNA synthesis activity of EV71 3D^pol in a dose-dependent manner”. In addition, on EV71 3D^pol [5], the dissociation constant (Kd) (as a rule, the equilibrium constant for the complex coming apart) stood at 6000 nM. Moreover, the “tissue damage, H&E histology” value in the series on EV71 CC063 (EV71-infected spinal skeletal muscle and hind-limb muscle) is “significantly reduced the damage”; with CA16 CC045 (CA16-infected brain, spinal skeletal muscle, hind-limb muscle), “significantly reduced the damage”. Besides, the mortality (in general, the percentage killed) in the series on EV71 CC063 (EV71 CC063 intracerebral, 1-day-old mice, 1 mg/kg i.p. days 1, 3, 6, 9, 12, 15 days) is listed as 20%; with CA16 CC045 (CA16 CC045 intracerebral, 1-day-old mice, 1 mg/kg i.p. days 1, 3, 6, 9, 12, 15 days), 0%. Also, the “EV71 viral load in spine skeletal muscle and hind-limb muscle (RT-qPCR)” value with EV71 CC063 (setting [7]) is recorded as “completely decreased”. The “EV71 viral loads in brain and lung (RT-qPCR)” value in the series on EV71 CC063 (setting [7]) was “moderately reduced”. Besides, the “CA16 viral load in all detected tissues (RT-qPCR)” value in the series on CA16 CC045 (brain, lung, spine skeletal muscle, hind-limb muscle, vs DMSO, P < 0.05) was “completely decreased”.

Take `NC(=O)c1ncn([C@@H]2O[C@H](CO)[C@@H](O)[C@H]2O)n1` [ribavirin]: the EC50 in the series with EV71 [6] was 266000 nM. For the same molecule, the “interaction with EV71 3Dpol by ITC” value at EV71 3D^pol [5] (ITC, 25°C, 3 mM ribavirin into 100 μM 3Dpol) is “failed to observe the interaction”.
